Measured values published in patent US11229623B2 (GlaxoSmithKline Intellectual Property (No.2) Limited, priority 2016, dated 2022).

molecular target: T1, human TRPV4 (Homo sapiens, UniProt Q9HBA0); test: FLIPR assay for hTRPV4 expressed in BHK cells: inhibition of Agonist Compound-induced calcium signal; type: cell-based; conditions: hTRPV4 in BHK/AC9 cells, FLIPR calcium signal, agonist at EC80; reported as range class; read-out: IC50
T1 construct: expressed in transfected cells; host or cells: BHK/AC9 cells transduced with BacMam virus
How it was run: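 BHK/AC9 cells transduced with BacMam human TRPV4 (MOI 78), plated 15,000 per well and cultured 24 h at 37° C. Loaded with 2 μM Fluo-4 AM plus 500 μM Brilliant Black in HBSS for 1-1.5 h at room temperature in the dark; intracellular calcium signal read by FLIPR fluorescence.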

T1 sequence (Q9HBA0 whole entry): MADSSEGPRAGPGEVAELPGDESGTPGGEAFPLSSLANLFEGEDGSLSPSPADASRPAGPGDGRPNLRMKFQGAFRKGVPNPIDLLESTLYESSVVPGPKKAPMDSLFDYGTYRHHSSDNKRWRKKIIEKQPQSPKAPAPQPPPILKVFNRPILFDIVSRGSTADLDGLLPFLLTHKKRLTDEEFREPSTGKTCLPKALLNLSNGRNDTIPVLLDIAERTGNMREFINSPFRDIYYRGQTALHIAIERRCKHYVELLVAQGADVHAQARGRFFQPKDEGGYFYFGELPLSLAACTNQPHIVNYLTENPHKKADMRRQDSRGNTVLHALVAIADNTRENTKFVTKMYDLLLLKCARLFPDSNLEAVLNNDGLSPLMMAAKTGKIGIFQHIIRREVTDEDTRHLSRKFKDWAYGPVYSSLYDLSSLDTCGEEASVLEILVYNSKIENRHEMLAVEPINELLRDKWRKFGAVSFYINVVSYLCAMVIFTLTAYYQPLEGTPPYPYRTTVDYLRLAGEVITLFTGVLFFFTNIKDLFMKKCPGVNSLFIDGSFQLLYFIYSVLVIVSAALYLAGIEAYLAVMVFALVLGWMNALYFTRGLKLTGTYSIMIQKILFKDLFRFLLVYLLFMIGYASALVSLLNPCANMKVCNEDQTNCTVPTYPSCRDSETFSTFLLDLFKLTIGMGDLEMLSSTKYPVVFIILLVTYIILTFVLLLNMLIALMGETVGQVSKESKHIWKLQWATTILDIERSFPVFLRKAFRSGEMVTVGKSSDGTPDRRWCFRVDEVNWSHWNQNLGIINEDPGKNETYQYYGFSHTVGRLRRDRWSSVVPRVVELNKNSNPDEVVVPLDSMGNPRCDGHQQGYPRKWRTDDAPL

IC50 [nM] | SMILES
0.1 to 10 | CC(C)C[C@@H](O)[C@]1(O)CN(S(=O)(=O)c2ccc(Cl)cn2)C[C@@H]1Oc1ccc(C#N)c(F)c1 [Example 197, 4-(((3S,4R)-1-((5-chloropyridin-2-yl)sulfonyl)-4-hydroxy-4-((R)-1-hydroxy-3-methylbutyl)pyrrolidin-3-yl)oxy)-2-fluorobenzonitrile]
0.1 to 10 | Cc1ccc(S(=O)(=O)N2C[C@H](Oc3ccc(C#N)c(F)c3)[C@](O)(CO)C2)c(Cl)c1 [Example 78, 4-(((3S,4R)-1-((2-chloro-4-methylphenyl)sulfonyl)-4-hydroxy-4-(hydroxymethyl)pyrrolidin-3-yl)oxy)-2-fluorobenzonitrile]
0.1 to 10 | N#Cc1cc(Cl)ccc1S(=O)(=O)N1C[C@H](Oc2cc(F)c(F)c(F)c2)[C@](O)(CO)C1 [Example 22, 5-chloro-2-(((3R,4S)-3-hydroxy-3-(hydroxymethyl)-4-(3,4,5-trifluorophenoxy)pyrrolidin-1-yl)sulfonyl)benzonitrile]
10 to 100 | N#Cc1cc(C(F)(F)F)ccc1S(=O)(=O)N1C[C@H](Oc2ccc(Cl)c(Cl)c2)[C@](O)(CO)C1 [Example 39, 2-(((3R,4S)-4-(3,4-dichlorophenoxy)-3-hydroxy-3-(hydroxymethyl)pyrrolidin-1-yl)sulfonyl)-5-(trifluoromethyl)benzonitrile]
10 to 100 | C[C@@H](O)[C@]1(O)CN(S(=O)(=O)c2ccc(C(F)(F)F)nc2)C[C@@H]1Oc1ccc(C#N)c(F)c1 [Example 206, 2-fluoro-4-(((3S,4R)-4-hydroxy-4-((R)-1-hydroxyethyl)-1-((6-(trifluoromethyl)pyridin-3-yl)sulfonyl)pyrrolidin-3-yl)oxy)benzonitrile]
10 to 100 | COc1ccc(O[C@H]2CN(S(=O)(=O)c3ccc(C(F)(F)F)cc3C#N)C[C@@]2(O)CO)cc1 [Example 52, 2-(((3R,4S)-3-hydroxy-3-(hydroxymethyl)-4-(4-methoxyphenoxy)pyrrolidin-1-yl)sulfonyl)-5-(trifluoromethyl)benzonitrile]
0.1 to 10 | N#Cc1ccc(O[C@H]2CN(S(=O)(=O)c3cccnc3C#N)C[C@@]2(O)CO)cc1F [Example 62, 3-(((3R,4S)-4-(4-cyano-3-fluorophenoxy)-3-hydroxy-3-(hydroxymethyl)pyrrolidin-1-yl)sulfonyl)picolinonitrile]
0.1 to 10 | N#Cc1cc(OCC(F)(F)F)c(O[C@H]2CN(S(=O)(=O)c3ccc(Cl)cn3)C[C@@]2(O)CO)cc1F [Example 187, 4-(((3S,4R)-1-((5-chloropyridin-2-yl)sulfonyl)-4-hydroxy-4-(hydroxymethyl)pyrrolidin-3-yl)oxy)-2-fluoro-5-(2,2,2-trifluoroethoxy) benzonitrile]
10 to 100 | N#Cc1ccc(O[C@H]2CN(S(=O)(=O)c3ccc(Br)nc3)C[C@@]2(O)CO)cc1F [Example 99, 4-(((3S,4R)-1-((6-bromopyridin-3-yl)sulfonyl)-4-hydroxy-4-(hydroxymethyl)pyrrolidin-3-yl)oxy)-2-fluorobenzonitrile]
0.1 to 10 | N#Cc1cc(OCC(F)(F)F)c(O[C@H]2CN(S(=O)(=O)c3ccccc3C#N)C[C@@]2(O)CO)cc1F [Example 173, 4-(((3S,4R)-1-((2-cyanophenyl)sulfonyl)-4-hydroxy-4-(hydroxymethyl)pyrrolidin-3-yl)oxy)-2-fluoro-5-(2,2,2-trifluoroethoxy) benzonitrile]
